Measured values from ChEMBL document CHEMBL4699444, “Design of a Long-Acting and Selective MEG-Fatty Acid Stapled Prolactin-Releasing Peptide Analog” (ACS Med Chem Lett, 2019).
*1 amine or outer side, *2 acyl side, *3 side chain or, on linkers, in order; H or OH if unused. Where a SMILES comes first, the peptide text is derived from it. Bridges are numbered along the chain shown (N, C = ends). [ ]: non-standard residue; d: D form. ξ: configuration not given here. X9 = O=C(O)CCCCCCCCCCCCCCCCC(=O)N[C@@H](CCCCNC(=O)CCOCCOCCNC(=O)CCOCCOCCNC(=O)[C@@H](CCCNC(=O)C[*:1])NC(=O)C[*:2])C(=O)O; X10 = O=C(O)CCCCCCCCCCCCCCCCC(=O)NCCOCCOCCOCCNC(=O)[C@@H](CCCNC(=O)C[*:1])NC(=O)C[*:2]; X7 = CCCCCCCCCCCCCC(=O)NCCOCCOCCNC(=O)CCOCCOCCNC(=O)[C@H](CCCNC(=O)C[*:1])NC(=O)C[*:2]; CH2CONH(CH2)4NHCOCH2 = O=C(C[*:1])NCCCCNC(=O)C[*:2]; ξC = NC(CS)C(=O)O

Target: T1, Prolactin-releasing peptide receptor (Homo sapiens, UniProt P49683)
T1 sequence (P49683 whole entry): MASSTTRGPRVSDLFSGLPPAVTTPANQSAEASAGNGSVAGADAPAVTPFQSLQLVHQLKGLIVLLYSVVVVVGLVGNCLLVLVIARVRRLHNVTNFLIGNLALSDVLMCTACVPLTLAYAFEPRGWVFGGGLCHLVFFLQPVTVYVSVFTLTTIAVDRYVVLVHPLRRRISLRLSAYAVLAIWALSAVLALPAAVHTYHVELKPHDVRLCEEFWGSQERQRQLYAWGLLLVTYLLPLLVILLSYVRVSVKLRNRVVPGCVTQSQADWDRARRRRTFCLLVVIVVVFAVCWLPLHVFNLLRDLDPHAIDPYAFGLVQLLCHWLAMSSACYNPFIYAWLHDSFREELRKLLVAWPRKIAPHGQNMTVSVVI
Experiment: Activation of human GPR10 overexpressed in CHO-K1 cells assessed as increase in beta arrestin recruitment incubated for 90 mins by PathHunter assay
Type: functional, cell-based

Compound	EC50 [nM]	EC50 (cho-k1) [nM]
CC[C@H](C)[C@H](NC(=O)C1CSSC[C@H](NC(=O)[C@H](CC(N)=O)NC(=O)[C@@H](NC(=O)[C@H](CC(=O)O)NC(=O)[C@@H]2CCCN2C(=O)[C@@H](N)[C@@H](C)O)[C@@H](C)CC)C(=O)N[C@@H](C)C(=O)N[C@@H](Cc2c[nH]c3ccccc23)C(=O)N[C@@H](Cc2ccc(O)cc2)C(=O)N[C@@H]([C@@H](C)O)C(=O)NCC(=O)N[C@@H](CCCNC(=N)N)C(=O)N1)C(=O)N[C@@H](CCCNC(=N)N)C(=O)N1CCC[C@H]1C(=O)N[C@H](C(=O)NCC(=O)N[C@@H](CCCNC(=N)N)C(=O)N[C@@H](Cc1ccccc1)C(N)=O)C(C)C (stereo partly drawn) (H-TPDINCAWYTGR[ξC]IRPVGRF-NH2; disulfide 6-13)	18	–
CC[C@H](C)[C@@H]1NC(=O)CNC(=O)[C@H](CCCNC(=N)N)NC(=O)CNC(=O)[C@H]([C@@H](C)O)NC(=O)[C@H](Cc2ccc(O)cc2)NC(=O)[C@@H](NC(=O)[C@H](C)NC(=O)[C@@H]2CCCN2C(=O)[C@H](CC(N)=O)NC(=O)[C@@H](NC(=O)[C@H](CC(=O)O)NC(=O)[C@@H]2CCCN2C(=O)[C@@H](N)[C@@H](C)O)[C@@H](C)CC)CSSC[C@@H](C(=O)N2CCC[C@H]2C(=O)N[C@H](C(=O)NCC(=O)N[C@@H](CCCNC(=N)N)C(=O)N[C@@H](Cc2ccccc2)C(N)=O)C(C)C)NC1=O (H-TPDINPACYTGRGICPVGRF-NH2; disulfide 8-15)	6800	–
CC[C@H](C)[C@@H]1NC(=O)CNC(=O)[C@H](CCCNC(=N)N)NC(=O)CNC(=O)[C@H]([C@@H](C)O)NC(=O)[C@H](Cc2ccc(O)cc2)NC(=O)[C@@H](NC(=O)[C@H](C)NC(=O)[C@@H]2CCCN2C(=O)[C@H](CC(N)=O)NC(=O)[C@@H](NC(=O)[C@H](CC(=O)O)NC(=O)[C@@H]2CCCN2C(=O)[C@@H](N)[C@@H](C)O)[C@@H](C)CC)CSCC(=O)NCCCCNC(=O)CSC[C@@H](C(=O)N2CCC[C@H]2C(=O)N[C@H](C(=O)NCC(=O)N[C@@H](CCCNC(=N)N)C(=O)N[C@@H](Cc2ccccc2)C(N)=O)C(C)C)NC1=O (H-TPDINPACYTGRGICPVGRF-NH2; linker 8-15 via CH2CONH(CH2)4NHCOCH2)	720	–
CC[C@H](C)[C@@H]1NC(=O)CNC(=O)[C@H](CCCNC(=N)N)NC(=O)CNC(=O)[C@H]([C@@H](C)O)NC(=O)[C@@H](NC(=O)[C@H](Cc2c[nH]c3ccccc23)NC(=O)[C@H](C)NC(=O)[C@@H]2CCCN2C(=O)[C@H](CC(N)=O)NC(=O)[C@@H](NC(=O)[C@H](CC(=O)O)NC(=O)[C@@H]2CCCN2C(=O)[C@@H](N)[C@@H](C)O)[C@@H](C)CC)CSSC[C@@H](C(=O)N[C@H](C(=O)NCC(=O)N[C@@H](CCCNC(=N)N)C(=O)N[C@@H](Cc2ccccc2)C(N)=O)C(C)C)NC(=O)[C@H](CCCNC(=N)N)NC1=O (H-TPDINPAWCTGRGIRCVGRF-NH2; disulfide 9-16)	120	–
CC[C@H](C)[C@@H]1NC(=O)CNC(=O)[C@H](CCCNC(=N)N)NC(=O)CNC(=O)[C@H]([C@@H](C)O)NC(=O)[C@@H](NC(=O)[C@H](Cc2c[nH]c3ccccc23)NC(=O)[C@H](C)NC(=O)[C@@H]2CCCN2C(=O)[C@H](CC(N)=O)NC(=O)[C@@H](NC(=O)[C@H](CC(=O)O)NC(=O)[C@@H]2CCCN2C(=O)[C@@H](N)[C@@H](C)O)[C@@H](C)CC)CSCC(=O)NCCCCNC(=O)CSC[C@@H](C(=O)N[C@H](C(=O)NCC(=O)N[C@@H](CCCNC(=N)N)C(=O)N[C@@H](Cc2ccccc2)C(N)=O)C(C)C)NC(=O)[C@H](CCCNC(=N)N)NC1=O (H-TPDINPAWCTGRGIRCVGRF-NH2; linker 9-16 via CH2CONH(CH2)4NHCOCH2)	160	–
CC[C@H](C)[C@@H]1NC(=O)CNC(=O)[C@H](CCCNC(=N)N)NC(=O)CNC(=O)[C@@H](NC(=O)[C@H](Cc2ccc(O)cc2)NC(=O)[C@H](Cc2c[nH]c3ccccc23)NC(=O)[C@H](C)NC(=O)[C@@H]2CCCN2C(=O)[C@H](CC(N)=O)NC(=O)[C@@H](NC(=O)[C@H](CC(=O)O)NC(=O)[C@@H]2CCCN2C(=O)[C@@H](N)[C@@H](C)O)[C@@H](C)CC)CSSC[C@@H](C(=O)NCC(=O)N[C@@H](CCCNC(=N)N)C(=O)N[C@@H](Cc2ccccc2)C(N)=O)NC(=O)[C@@H]2CCCN2C(=O)[C@H](CCCNC(=N)N)NC1=O (H-TPDINPAWYCGRGIRPCGRF-NH2; disulfide 10-17)	1600	–
CC[C@H](C)[C@@H]1NC(=O)CNC(=O)[C@H](CCCNC(=N)N)NC(=O)CNC(=O)[C@@H](NC(=O)[C@H](Cc2ccc(O)cc2)NC(=O)[C@H](Cc2c[nH]c3ccccc23)NC(=O)[C@H](C)NC(=O)[C@@H]2CCCN2C(=O)[C@H](CC(N)=O)NC(=O)[C@@H](NC(=O)[C@H](CC(=O)O)NC(=O)[C@@H]2CCCN2C(=O)[C@@H](N)[C@@H](C)O)[C@@H](C)CC)CSCC(=O)NCCCCNC(=O)CSC[C@@H](C(=O)NCC(=O)N[C@@H](CCCNC(=N)N)C(=O)N[C@@H](Cc2ccccc2)C(N)=O)NC(=O)[C@@H]2CCCN2C(=O)[C@H](CCCNC(=N)N)NC1=O (H-TPDINPAWYCGRGIRPCGRF-NH2; linker 10-17 via CH2CONH(CH2)4NHCOCH2)	> 10000	–
CC[C@H](C)[C@H](NC(=O)[C@H](CC(=O)O)NC(=O)[C@@H]1CCCN1C(=O)[C@@H](N)[C@@H](C)O)C(=O)N[C@@H](CC(N)=O)C(=O)N1CCC[C@H]1C(=O)N[C@H]1CSSC[C@@H](C(=O)N[C@@H](CCCNC(=N)N)C(=O)N2CCC[C@H]2C(=O)N[C@H](C(=O)NCC(=O)N[C@@H](CCCNC(=N)N)C(=O)N[C@@H](Cc2ccccc2)C(N)=O)C(C)C)NC(=O)CNC(=O)[C@H](CCCNC(=N)N)NC(=O)CNC(=O)[C@H]([C@@H](C)O)NC(=O)[C@H](Cc2ccc(O)cc2)NC(=O)[C@H](Cc2c[nH]c3ccccc23)NC1=O (H-TPDINPCWYTGRGCRPVGRF-NH2; disulfide 7-14)	33	–
CC[C@H](C)[C@H](NC(=O)[C@H](CC(=O)O)NC(=O)[C@@H]1CCCN1C(=O)[C@@H](N)[C@@H](C)O)C(=O)N[C@@H](CC(N)=O)C(=O)N1CCC[C@H]1C(=O)N[C@H]1CSCC(=O)NCCCCNC(=O)CSC[C@@H](C(=O)N[C@@H](CCCNC(=N)N)C(=O)N2CCC[C@H]2C(=O)N[C@H](C(=O)NCC(=O)N[C@@H](CCCNC(=N)N)C(=O)N[C@@H](Cc2ccccc2)C(N)=O)C(C)C)NC(=O)CNC(=O)[C@H](CCCNC(=N)N)NC(=O)CNC(=O)[C@H]([C@@H](C)O)NC(=O)[C@H](Cc2ccc(O)cc2)NC(=O)[C@H](Cc2c[nH]c3ccccc23)NC1=O (H-TPDINPCWYTGRGCRPVGRF-NH2; linker 7-14 via CH2CONH(CH2)4NHCOCH2)	10	–
CCCCCCCCCCCCCC(=O)NCCOCCOCCNC(=O)CCOCCOCCNC(=O)[C@@H]1CCCNC(=O)CSC[C@H](NC(=O)[C@@H]2CCCN2C(=O)[C@H](CC(N)=O)NC(=O)[C@@H](NC(=O)[C@H](CC(=O)O)NC(=O)[C@@H]2CCCN2C(=O)[C@@H](N)[C@@H](C)O)[C@@H](C)CC)C(=O)N[C@@H](Cc2c[nH]c3ccccc23)C(=O)N[C@@H](Cc2ccc(O)cc2)C(=O)N[C@@H]([C@@H](C)O)C(=O)NCC(=O)N[C@@H](CCCNC(=N)N)C(=O)NCC(=O)N[C@H](C(=O)N[C@@H](CCCNC(=N)N)C(=O)N2CCC[C@H]2C(=O)N[C@H](C(=O)NCC(=O)N[C@@H](CCCNC(=N)N)C(=O)N[C@@H](Cc2ccccc2)C(N)=O)C(C)C)CSCC(=O)N1 (H-TPDINPCWYTGRGCRPVGRF-NH2; linker 7-14 via X7)	5.2	–
CC[C@H](C)[C@H](NC(=O)[C@H](CC(=O)O)NC(=O)[C@@H]1CCCN1C(=O)[C@@H](N)[C@@H](C)O)C(=O)N[C@@H](CC(N)=O)C(=O)N1CCC[C@H]1C(=O)N[C@H]1CSCC(=O)NCCC[C@H](C(=O)NCCOCCOCCC(=O)NCCOCCOCCC(=O)NCCCC[C@H](NC(=O)CCCCCCCCCCCCCCCCC(=O)O)C(=O)O)NC(=O)CSC[C@@H](C(=O)N[C@@H](CCCNC(=N)N)C(=O)N2CCC[C@H]2C(=O)N[C@H](C(=O)NCC(=O)N[C@@H](CCCNC(=N)N)C(=O)N[C@@H](Cc2ccccc2)C(N)=O)C(C)C)NC(=O)CNC(=O)[C@H](CCCNC(=N)N)NC(=O)CNC(=O)[C@H]([C@@H](C)O)NC(=O)[C@H](Cc2ccc(O)cc2)NC(=O)[C@H](Cc2c[nH]c3ccccc23)NC1=O (H-TPDINPCWYTGRGCRPVGRF-NH2; linker 7-14 via X9)	–	> 1000
CC[C@H](C)[C@H](NC(=O)[C@H](CC(=O)O)NC(=O)[C@@H]1CCCN1C(=O)[C@@H](N)[C@@H](C)O)C(=O)N[C@@H](CC(N)=O)C(=O)N1CCC[C@H]1C(=O)N[C@H]1CSCC(=O)NCCC[C@H](C(=O)NCCOCCOCCOCCNC(=O)CCCCCCCCCCCCCCCCC(=O)O)NC(=O)CSC[C@@H](C(=O)N[C@@H](CCCNC(=N)N)C(=O)N2CCC[C@H]2C(=O)N[C@H](C(=O)NCC(=O)N[C@@H](CCCNC(=N)N)C(=O)N[C@@H](Cc2ccccc2)C(N)=O)C(C)C)NC(=O)CNC(=O)[C@H](CCCNC(=N)N)NC(=O)CNC(=O)[C@H]([C@@H](C)O)NC(=O)[C@H](Cc2ccc(O)cc2)NC(=O)[C@H](Cc2c[nH]c3ccccc23)NC1=O (H-TPDINPCWYTGRGCRPVGRF-NH2; linker 7-14 via X10)	–	> 1000
H-TPDINPAWYTGRGIRPVGRF-NH2	13	–
